In paper PMC13538172, “Zonisamide nanodiamonds for brain targeting: A comprehensive study utilising in silico, in vitro, in vivo, and molecular investigation for successful nose-to-brain delivery for epilepsy management” (Drug Delivery and Translational Research, 2025):
Values joined by “and” are separate entries in the source; they are usually repeats but may differ in a detail not shown here. Identical values can stand only once.

Assays:
[1] = Brain uptake, biodistribution and pharmacokinetics of 99mTc-radiolabelled ZNS in mice; type: in vivo, male Swiss albino mice; settings: for Cmax (%ID/g), blood / Cmax (%ID/g), brain: n = 6
Description: Then, 100 μL of freshly eluted ^99mTc-pertechnetate; 99mTcO4- (200 MBq) was added to the above mixture, and the reaction mixture was vigorously shaken for 15 minutes. Radiochromatographic analysis was developed using the ascending paper chromatography (PC) technique to monitor the radiochemical purity of the ^99mTc-labelled compound using two distinct mobile phases; acetone was used to detect free pertechnetate, which migrated to Rf = 1, while the other component remained at Rf = 0 and a second mobile phase, comprising NH4OH, C2H5OH, and H2O (1:2:5), was used to determine the reduced hydrolyzed (R-H) 99mTc-colloid, which remained at Rf = 0, whereas ^99mTc-labelled compound and free pertechnetate migrated to Rf = 1 [7, 47]. Two drops of the reaction product and free 99mTcO4 were placed on two strips of Whatman PC on the origin line, 2 cm far from the base, to be developed by developing solvents. The experiments were conducted in triplicate to ensure the reproducibility and reliability of the results. As the developing process was terminated, the strip was dried, trimmed into 1 cm size pieces, and counted using the sodium iodide (NaI) γ-ray scintillation counter (A good-type NaI scintillation γ-Counter model scalar rate meter SR7 (Nuclear Enterprises Ltd., USA). The radiochemical yield percent of ^99mTc–ZNS was calculated using Eq. (3)3 %Radiochemicalyield=100-%Free99mTc-%colloid99mTc
The experiment protocol was approved by the University of October for Modern Sciences and Arts (MSA) ethical committee (Pt2/Ec2/2022PD), where the principles of the Declaration of Helsinki were followed. The mice were maintained in cabins of a size that suits groups of five at room temperature with a 12 h light/dark cycle and accessibility to food and water ad libitum. The mice were divided into four groups. Mice in group 1 served as a control and received no treatments. Mice in group 2 were given ZNS orally using an oral gavage (100 μL). Mice in group 3 were injected intranasally with ^99mTc–ND-ZNS complex in each nostril (100 μL) with the help of a micropipette attached with a low-density polyethene tube having 0.1 mm internal diameter at the delivery site. Mice in group 4 were injected intranasally free ^99mTc–-ZNS similarly. The mice were held from the back in a slanted position during nasal administration of the formulations. Next, mice were anesthetized by chloroform at 5, 15, 30, 60, 120 min post-injection (n=6 mice/time point). Samples of fresh blood and different organs were collected, washed twice using saline solution, made free from adhering tissue/fluid, and weighed. The radioactivity in each tissue/organ was measured using a shielded well-type gamma scintillation counter. The radiopharmaceutical uptake per gram in each tissue/organ was calculated as a fraction of the administered dose. Percent injected dose per gram organ and body fluid (mean %ID per gram organ and body fluid ± SD) in a population of six mice were calculated, and the significance level was set at […].
Drug concentrations in plasma and brain were investigated based on the measured radioactivity as previously discussed. Blood samples were collected at 5, 15, 30, 60, and 120 min post-injection (n=6 mice/time interval). Plasma and brain pharmacokinetic parameters were calculated by non-compartmental analysis using the Microsoft Excel Pharmacokinetics add-on. The rate of drug absorption was estimated through maximum plasma/brain concentration (Cmax), time for maximum plasma/brain concentration (Tmax), the extent of drug absorption via the area under the curve from zero to time (AUC0-t), and the area under the curve from zero to infinity (AUC 0-∞). The data in the form of mean values (± SD) of three determinations were statistically analyzed by applying one-way ANOVA using Minitab 17 software. Data was expressed as mean±S.D and analyzed by ANOVA followed by Tukey's test for multiple comparisons. Differences were considered significant when p was less than 0.05. […]

[2] = tested on: brain hippocampus; assay: Histopathological examination of the brain hippocampus in TLE rats; type: in vivo; settings: H&E, Fig. 12
Description: Temporal lobe epilepsy (TLE) was induced in rats using the pilocarpine model according to the method of […] et al.. Prior to the experiment, rats were housed in plastic cages at October University for Modern Science and Arts under controlled environmental conditions (temperatures of 25°±3°C and 50% humidity) with free access to water and softened standard pellet chow. The rats were injected with pilocarpine (300 mg/kg; i.p.) to induce status epilepticus (SE). Atropine (1 mg/kg; i.p.) was injected 30 minutes before pilocarpine injection to antagonize the peripheral muscarinic activity. SE was defined using the modified Racine scale by observing seizure severity categorized as stages 4 and 5. […] The SE seizures were left to last for 3 hours to induce hippocampus damage, after which diazepam (10 mg/kg; i.p.) was injected to attenuate the seizures. Lubricant ophthalmic gel was applied with a cotton swab to each eye to prevent the corneas from drying out during the seizures. The rats were hydrated with sterile Ringer's lactate injections (1 mL, i.p.) for 3 days post-SE induction. Animal welfare assessments were conducted multiple times per day for several days after the induction of SE. […]

tissue distribution of ZNS (brain, liver, kidney, stomach, lungs) ([1]; 5-120 min, Fig. 6, result in words): minimal distribution in the brain
Brain/Blood Ratio (AUC Brain/AUC Blood) ([1]; intranasal): 0.24
LogBB at 15 min ([1]; intranasal): −0.55±0.06
LogBB at 15 min ([1]; intranasal, listed as free ZNS): −0.556
LogBB at 120 min ([1]; intranasal): −0.477
AUC(0-120min), blood ([1]; intranasal): 125.25 ± 21.3 %ID/g.min
Tmax (min), blood ([1]; intranasal): 15 min
Cmax (%ID/g), blood ([1]; intranasal): 1.8 ± 0.7 %ID/g
AUC(0-120min), brain ([1]; intranasal): 31 ± 9.6 %ID/g.min
Tmax (min), brain ([1]; intranasal): 15 min
Cmax (%ID/g), brain ([1]; intranasal): 0.5 ± 0.2 %ID/g
LogBB at 15 min ([1]; oral): −0.865
LogBB at 120 min ([1]; oral): −1.301
AUC(0-120min), blood ([1]; oral): 77.6 ± 15.3 %ID/g.min
Tmax (min), blood ([1]; oral): 30 min
Cmax (%ID/g), blood ([1]; oral): 1.4 ± 0.07 %ID/g
AUC(0-120min), brain ([1]; oral): 7.1 ± 3.1 %ID/g.min
Tmax (min), brain ([1]; oral): 15 min
Cmax (%ID/g), brain ([1]; oral): 0.2 ± 0.02 %ID/g
Brain/Blood Ratio (AUC Brain/AUC Blood) ([1]; oral, listed as free ZNS): 0.09 and 0.091
SMILES: NS(=O)(=O)Cc1noc2ccccc12 [ZNS, Zonisamide]
hippocampal histopathology, result in words [2]: noticeable neuroprotective efficacy
